Values quoted from earlier work, collected in paper PMC8371712 (ACS chemical biology, 2021).

What was measured:
[1] = test system: aspartate aminotransferase; settings: margin of safety statement; no reference given
[2] = test system: release of dopamine in the corpus striatum; settings: no reference given
[3] = test system: hERG potassium ion channel; settings: margin of safety statement; no reference given
[4] = test system: alanine aminotransferase; settings: margin of safety statement; no reference given
[5] = test system: various microsomal cytochrome P450 enzymes; settings: margin of safety statement; no reference given
[6] = no reference given
[7] = test system: Cerep SpectrumScreen panel of 176 pharmacological targets

## N[C@H]1C=C(C(=O)O)CC1=C(F)F [OV329, (S)-3-amino-(difluoromethylenyl)cyclopent-1-ene-1-carboxylic acid]
[1]
  activity against aspartate aminotransferase: lack of activity
[2]
  release of dopamine in the corpus striatum: blocks the release of dopamine
[3]
  activity against hERG potassium ion channel: lack of activity
[4]
  activity against alanine aminotransferase: lack of activity
[5]
  activity against microsomal cytochrome P450 enzymes: lack of activity
[6]
  Ames test: negative
[7]
  activity in Cerep SpectrumScreen panel: lack of activity
